The LD50 is the dose expected to kill half of the subjects tested.

Bounds are passed on as bounds.

The text below walks through data of patent US20250313526A1, “PYRETHROID COMPOUND CONTAINING DOUBLE BONDS AND CYANO GROUPS, SYNTHESIS METHOD THEREFOR, AND APPLICATION THEREOF” (Jiangsu Yangnong Chemical Co., Ltd., priority 2022, published 2025).

What all share (format): in vivo
Data set [1] relates to female mosquitoes of Culex pipiens pallens. Briefly: Mosquito-repellent incense mosquito-killing efficacy, sealed drum apparatus (GB/T13917.4-2009). The conditions noted are these: for KT50: mosquito-repellent incense W1-W5, active ingredient 0.04 w/w %, incense burnt 1 min, 20 female Culex pipiens pallens. The protocol: 99.96 parts by weight of a mixture consisting of corn starch, carbon powder and wood powder (1:5:4) were added with 120 parts by mass of water, kneaded into shape, and then dried to form a mosquito-repellent incense substrate (with a diameter of 12.0 cm, a thickness of 4 mm, and a pair weighing 40 g).
On the other hand, a 0.4 w/v % solution of compound 1 in kerosene was prepared. The set of incense substrate was uniformly spray-coated with 4 ml of the above solution using a microsyringe, and then left to dry at room temperature for 3 h to obtain a set of mosquito-repellent incense W1 containing 0.04 w/w % compound 1.
Similarly, compounds 2-3 of the present invention shown in Table 1, as well as Momfluorothrin and tetramethylfluthrin were prepared respectively to obtain corresponding mosquito-repellent incenses W2 to W5.
The mosquito-repellent incenses W2 to W5 were measured and compared in terms of mosquito-killing efficacy in accordance with GB/T13917.4-2009. […] The specific process was as follows: sucking 20 test mosquitoes with a mosquito suction tube, placing them into a sealed drum apparatus, taking a section of mosquito-repellent incense to be tested and placing it on an incense holder, lighting the incense and starting timing, removing the mosquito-repellent incense after 1 min, and recording the number of test mosquitos knocked down at regular intervals.

Another data set has as its system Mosquitoes. Briefly: Insecticidal aerosol efficacy, sealed drum apparatus (GB/T13917.2-2009), mosquitoes. The conditions noted are these: for Mortality rate: aerosol 0.3% active ingredient, 24 h; for Mortality rate / KT50: 1 g sprayed, mosquitoes; for KT50: aerosol containing 0.3% active ingredient. The protocol: (§1) 0.3 parts by weight of compound 1 with 59.7 parts by weight of kerosene were heated and evenly mixed to prepare an insecticide. The resulting preparation was placed in an aerosol can equipped with a valve, through which 40.0 parts by weight of propane and butane were injected underpressure, to obtain an insecticidal aerosol containing 0.3% compound 1.
(§2) The insecticidal aerosol was tested for efficacy on mosquitoes, flies, and German cockroaches in accordance with GB/T13917.2-2009, using a sealed drum apparatus. The specific process was as follows: placing the test insects into a tank, and after the test insects resumed normal activities, quantitatively spraying 1 g of the agent from the insecticidal aerosol can, pulling out the baffle after 1 min to make the test insects in contact with the agent, immediately starting timing and recording the number of the test insects knocked down at regular intervals, transferring all the test insects to a clean insect rearing cage after 20 min, and checking the number of dead insects after 24 h, wherein the German cockroaches were tested for 72-h mortality rate.
(§3) The aerosols of compounds 1-3, Momflurothrin and tetramethylfluthrin were prepared according to Test Example 2, and were tested for efficacy.

The next data set deals with Flies. Briefly: Insecticidal aerosol efficacy, sealed drum apparatus (GB/T13917.2-2009), flies. The note with it: 1 g sprayed; for Mortality rate: aerosol 0.3% active ingredient, 24 h; for KT50: aerosol containing 0.3% active ingredient. The protocol: as §1, §2, §3
The next data set concerns German cockroaches. Briefly: Insecticidal aerosol efficacy, sealed drum apparatus (GB/T13917.2-2009), German cockroaches. The note with it: 1 g sprayed; for Mortality rate: aerosol 0.3% active ingredient, 72 h; for KT50: aerosol containing 0.3% active ingredient. On the procedure:
as §1, §2, §3

A further data set in a line: Rat acute oral toxicity. The note with it: in vivo, read-out: rat acute oral toxicity median lethal dose (LD50).
Data set [2] has as its system rat. Briefly: Rat acute oral toxicity.
Data set [3] can be described thus: Rat acute dermal toxicity. The note with it: in vivo, topical or ocular, read-out: rat acute dermal toxicity median lethal dose (LD50).
Data set [4] deals with rat. Nature of the data set: Rat acute dermal toxicity.

As for `CC1(C)C(/C=C\C#N)C1C(=O)OCc1cc(F)cc(F)c1F` (centres unmarked) [Compound 1, 2,3,5-trifluorobenzyl (Z)-3-(2-cyanovinyl)-2,2-dimethylcyclopropanecarboxylate], the KT50 in data set [1] was determined as 2.45 min; with Mosquitoes, 1.33 min; with Flies it was 2.32 min; with German cockroaches, 4.05 min. The Mortality rate stood at 100% in the data set on Mosquitoes, 100% in the data set on Flies and 95% with German cockroaches.

Consider `CC1(C)C(/C=C\C#N)C1C(=O)OCc1c(F)ccc(F)c1F` (centres unmarked) [Compound 2, 2,3,6-trifluorobenzyl (Z)-3-(2-cyanovinyl)-2,2-dimethylcyclopropanecarboxylate], for which the KT50 was determined as 5.42 min in data set [1], 3.58 min with Mosquitoes, 4.65 min in the data set with Flies and 6.26 min in the data set on German cockroaches. Further, the figures for the Mortality rate with Mosquitoes, in the data set with Flies and in the data set with German cockroaches were 100%, 100% and 90%, respectively.

On to `CC1(C)C(/C=C\C#N)C1C(=O)OCc1c(F)c(F)cc(F)c1F` (centres unmarked) [Compound 3, 2,3,5,6-tetrafluorobenzyl (Z)-3(2-cyanovinyl)-2,2-dimethylcyclopropanecarboxylate], for which the KT50 in data set [1] came out at 4.65 min; in the data set with Mosquitoes, 2.45 min; in the data set on Flies, 3.45 min; in the data set on German cockroaches, 5.52 min. In addition, the Mortality rate is listed as 100% in the data set on Mosquitoes, 100% in the data set with Flies and 95% with German cockroaches. The LD50 (in “Rat acute oral toxicity”; in data set [3]) was above 5000 mg/kg throughout. The “acute oral toxicity classification” value in the data set on rat [2] is listed as “slightly toxic”. Besides, in the data set on rat [4], the “acute dermal toxicity classification” value is recorded as “slightly toxic”.

On to `COCc1c(F)c(F)c(COC(=O)C2C(/C=C(/C)C#N)C2(C)C)c(F)c1F` (centres unmarked) [Momfluorothrin, reference compound], for which the “activity as mosquito-repellent incense” value in data set [1] (as mosquito-repellent incense) is reported as “relatively poor activity”. Moreover, the KT50 in data set [1] is listed as 27.87 min; with Mosquitoes, 12.35 min; in the data set on Flies, 15.28 min; with German cockroaches it was 17.56 min. For the same molecule, the Mortality rate is reported as 100% in the data set with Mosquitoes, 70% with Flies and 60% with German cockroaches. In addition, the “knockdown activity against mosquitoes” value with Mosquitoes (as an aerosol in a cylindrical container) was “good knockdown activity”.

Consider `COCc1c(F)c(F)c(COC(=O)C2C(C)(C)C2(C)C)c(F)c1F` [tetramethylfluthrin, reference compound], for which the KT50 is reported as 9.23 min in data set [1], 6.46 min with Mosquitoes, 8.56 min in the data set with Flies and 9.12 min with German cockroaches. Moreover, the Mortality rate is 100% in the data set with Mosquitoes, 80% in the data set with Flies and 65% in the data set with German cockroaches.
